From article PMC11170711, “Pharmacophore Virtual Screening Identifies Riboflavin as an Inhibitor of the Schistosome Cathepsin B1 Protease with Antiparasitic Activity” (ACS Omega, 2024) come the findings set out here.

For the test, the target named is T1, human cathepsin B (Homo sapiens, UniProt P07858).
T1 construct: gene CTSB
The test is described as follows: fluorogenic Z-RR-AMC hydrolysis assay with recombinant enzyme, without and with […] Triton X-[…] with detergent. Type of test: biochemical.

Structures are written as SMILES.

As a reminder, the IC50 is the point on the concentration scale where inhibition reaches its midpoint. For the compound `Cc1cc2nc3c(=O)[nH]c(=O)nc-3n(C[C@H](O)[C@H](O)[C@H](O)CO)c2cc1C` [RBF, riboflavin], the IC50 amounted to 12.1 ± 1.86 µM.
